# Tests used:
# Staphylococcus aureus [1] = experiment: Antibiofilm activity against methicillin-resistant Staphylococcus aureus ATCC 6538 at 100 ug/ml incubated for 24 hrs by crystal violet staining based microplate reader method relative to control; type: functional; conditions: dose 100 µg/ml
# Marinobacter nauticus = experiment: Antibiofilm activity against Marinobacter hydrocarbonoclasticus at 31.25 ug/ml incubated for 24 hrs by crystal violet staining based analysis relative to control; type: functional; conditions: dose 31.25 µg/ml
# Micrococcus luteus = experiment: Antibiofilm activity against Micrococcus luteus at 31.25 ug/ml incubated for 48 hrs by crystal violet staining based analysis relative to control; type: functional; conditions: dose 31.25 µg/ml
# Streptococcus mutans [2] = experiment: Antibiofilm activity against Streptococcus mutans UA159 assessed as inhibition of biofilm formation; type: functional, organism-based
# Streptococcus mutans [3] = experiment: Antibiofilm activity against clinical isolate Streptococcus mutans 2.M7/4 assessed as inhibition of biofilm formation at 31.0 ug/ml relative to control; type: functional; set-up: scale not given: the % may be the effect or the level left; conditions: dose 31 µg/ml
# Streptococcus mutans [4] = experiment: Antibiofilm activity against Streptococcus mutans UA159 assessed as inhibition of biofilm formation at 31.0 ug/ml relative to control; type: functional; set-up: scale not given: the % may be the effect or the level left; conditions: dose 31 µg/ml
# Staphylococcus aureus [5] = experiment: Antibiofilm activity against Staphylococcus aureus ATCC 6538 at 100 ug/ml incubated for 24 hrs by crystal violet staining based microplate reader method relative to control; type: functional; conditions: dose 100 µg/ml
# Pseudomonas aeruginosa [6] = experiment: Antibiofilm activity against Pseudomonas aeruginosa assessed as inhibition of biofilm formation at 100 ug/ml incubated for 24 hrs by crystal violet staining based analysis relative to control; type: functional; set-up: scale not given: the % may be the effect or the level left; conditions: dose 100 µg/ml
# Staphylococcus aureus [7] = experiment: Antibiofilm activity against methicillin-resistant Staphylococcus aureus CH 10850 at 32 ug/ml relative to control; type: functional; conditions: dose 32 µg/ml
# Staphylococcus aureus [8] = experiment: Antibiofilm activity against Staphylococcus aureus ATCC 25923 after 24 hrs by crystal violet staining based assay; type: functional, organism-based; conditions: ATCC 25923, 24 h
# Staphylococcus aureus [9] = experiment: Antibiofilm activity against Staphylococcus aureus ATCC 6538 after 24 hrs by crystal violet staining based assay; type: functional, organism-based; conditions: ATCC 6538, 24 h
# Candida albicans = experiment: Antibiofilm activity against Candida albicans assessed as reduction in biofilm formation at 200 ug/ml measured after 48 hrs by crystal violet staining based analysis relative to control; type: functional; set-up: scale not given: the % may be the effect or the level left; conditions: dose 200 µg/ml
# Pseudomonas aeruginosa [10] = experiment: Antibiofilm activity against Pseudomonas aeruginosa ATCC 15442 after 24 hrs by crystal violet staining based assay; type: functional, organism-based; conditions: ATCC 15442, 24 h
# [11] = test system: Staphylococcus epidermidis; experiment: Antibiofilm activity against Staphylococcus epidermidis RP62A; type: functional
# Staphylococcus aureus [12] = experiment: Antibiofilm activity against Staphylococcus aureus ATCC 6538 at 6.25 ug/ml relative to control; type: functional; conditions: dose 6.25 µg/ml
# Staphylococcus aureus [13] = experiment: Antibiofilm activity against methicillin-resistant Staphylococcus aureus CH 10850 at 50 ug/ml relative to control; type: functional; conditions: dose 50 µg/ml
# [14] = test system: Pseudooceanicola batsensis; experiment: Antibiofilm activity against Pseudooceanicola-batsensis at 31.25 ug/ml incubated for 48 hrs by crystal violet staining based analysis relative to control; type: functional; conditions: dose 31.25 µg/ml
# Staphylococcus aureus [15] = experiment: Antibiofilm activity against Staphylococcus aureus ATCC 6538 assessed as reduction in biofilm formation at 50 ug/ml measured after 24 hrs by crystal violet staining based analysis relative to control; type: functional; set-up: scale not given: the % may be the effect or the level left; conditions: dose 50 µg/ml
# Staphylococcus aureus [16] = experiment: Antibiofilm activity against methicillin-resistant Staphylococcus aureus CH 10850 at 100 ug/ml relative to control; type: functional; conditions: dose 100 µg/ml
# [17] = test system: Staphylococcus epidermidis; experiment: Antibiofilm activity against […] incubated for 24 hrs; type: functional
# [18] = Inhibition of quorum sensing system in Pseudomonas aeruginosa PA01 transfected with […]
# [19] = Inhibition of quorum sensing system in Pseudomonas aeruginosa PA01 transfected with lasB-gfp
# Pseudomonas aeruginosa [20] = experiment: Antibiofilm activity against Pseudomonas aeruginosa PA01 at 128 ug/ml relative to control; type: functional; conditions: dose 128 µg/ml
structure (smiles),measurement,setting,value
CC(=O)O[C@H]1C[C@@H]2C(CO)=C[C@]3(C=C(C)C[C@@H](/C=C(\C)CCC=C(C)C)O3)O[C@@H]2C=C1C,Activity,Staphylococcus aureus [1],50%
CC(=O)O[C@@H]1C[C@@H]2C(CO)=C[C@]3(C=C(C)C[C@@H](/C=C(\C)CCC=C(C)C)O3)O[C@@H]2C=C1C,Activity,Staphylococcus aureus [1],50%
C=C(C)C(=O)CC/C(C)=C/C[C@@]12OC(C)(C)[C@H](Cl)C[C@]1(Cl)C(=O)c1c(O)cc(O)cc1C2=O,Activity,Marinobacter nauticus,43.4%
same,Activity,Micrococcus luteus,87.3%
C=C(C)C(=O)CC/C(C)=C\C[C@@]12OC(C)(C)[C@H](Cl)C=C1C(=O)c1c(O)cc(O)cc1C2=O,Activity,Marinobacter nauticus,43.4%
same,Activity,Micrococcus luteus,87.3%
COc1ccc(CNC2=CC3=NCCc4cn(S(=O)(=O)c5ccc(C)cc5)c(c43)C2=O)cc1OC,IC50,Streptococcus mutans [2],2.6 µM
CCCCCCCCC[C@H](CC(=O)NCCCCN)N1CC(=O)N[C@@H](Cc2ccccc2)C1=O,Activity,Streptococcus mutans [3],34.8%
same,Activity,Streptococcus mutans [4],90%
CC(C)=CCC/C(C)=C/[C@@H]1CC(C)=C[C@]2(C=C(CO)[C@H]3C[C@H](O)C(C)=C[C@H]3O2)O1,Activity,Staphylococcus aureus [5],>95%
O=C(OCc1ccccc1)c1ccccc1 [BENZYL BENZOATE],Activity,Pseudomonas aeruginosa [6],37.7%
NCC(c1c[nH]c2cc(F)ccc12)c1c[nH]c2cc(F)ccc12,Activity,Staphylococcus aureus [7],61%
COCCn1cc(-c2csc(-c3cn(C(=O)OC(C)(C)C)c4ccccc34)n2)c2cccnc21,IC50,Staphylococcus aureus [8],3.7 µM
same,IC50,Staphylococcus aureus [9],14.5 µM
CC(C)=CCC/C(C)=C\C[C@@]12OC(C)(C)[C@H](Cl)C=C1C(=O)c1c(cc(O)c(C)c1O)C2=O,Activity,Marinobacter nauticus,23.4%
C/C=C/CCCC(C)/C(O)=C1\C(=O)[C@@H](C(C)O)N(C)C1=O (stereo partly specified),Activity,Candida albicans,80%
NCC(c1c[nH]c2cc(Br)ccc12)c1c[nH]c2cc(Br)ccc12,Activity,Staphylococcus aureus [7],56.3%
Cn1cc(-c2csc(-c3cn(CCN)c4ccc(F)cc34)n2)c2cccnc21,IC50,Pseudomonas aeruginosa [10],9.9 µM
same,IC50,Staphylococcus aureus [8],1.27 µM
same,IC50,Staphylococcus aureus [9],13.2 µM
CCCCCCC(C)/C(O)=C1\C(=O)[C@H](C(C)O)N(C)C1=O (stereo partly specified),Activity,Candida albicans,80%
CCCCCC1OC1C(O)CCCCCCCCCC(=O)O (stereo unspecified),MBIC,[11],32 µg/mL
COC(=O)[C@@]12Oc3ccc(-c4ccc5c(c4O)C(=O)C4=C(O)C[C@H](C)[C@H](O)[C@]4(C(=O)OC)O5)c(O)c3C(=O)C1=C(O)C[C@H](C)[C@@H]2O [SECALONIC ACID B],Activity,Staphylococcus aureus [12],>90%
CC(C)(C)OC(=O)NCCn1cc(-c2nc(-c3c[nH]c4ncccc34)cs2)c2ccccc21,IC50,Staphylococcus aureus [8],8.4 µM
same,IC50,Staphylococcus aureus [9],11.3 µM
CCC(C)C(=O)NCCc1ccccc1 (stereo unspecified),Activity,Pseudomonas aeruginosa [6],50.6%
C/C(=C/C[C@@]12OC(C)(C)[C@H](Cl)C[C@]1(Cl)C(=O)c1c(O)cc(O)cc1C2=O)CC/C=C(\C)CO,Activity,Marinobacter nauticus,60.2%
CC(=O)OCC1=C[C@]2(C=C(C)C[C@@H](/C=C(\C)CCC=C(C)C)O2)O[C@@H]2C=C(C)C(=O)C[C@H]12,Activity,Staphylococcus aureus [1],50%
CC(C)=CCC/C(C)=C/[C@@H]1CC(C)=C[C@]2(C=C(CO)[C@H]3C[C@@H](O)C(C)=C[C@H]3O2)O1,Activity,Staphylococcus aureus [5],>95%
COC(=O)[C@H](C)c1c([C@@]2(C)CCCC(C)(C)C2)ccc2c1[C@H](O)OC2=O,Activity,Staphylococcus aureus [13],97.8%
CC(C)=CCC/C(C)=C\C[C@@]12OC(C)(C)[C@H](Cl)C[C@]1(Cl)C(=O)c1c(cc(O)c(C)c1O)C2=O,Activity,Marinobacter nauticus,28%
C=C1CCC(Br)C(C)(C)C1C[C@@]12OC(C)(C)[C@H](Cl)C[C@]1(Cl)C(=O)c1c(O)cc(O)cc1C2=O (stereo partly specified),Activity,[14],26.2%
same,Activity,Marinobacter nauticus,59.3%
same,Activity,Micrococcus luteus,100%
COc1cc(-c2ccccn2)nc(/C=N/O)c1[S+](C)[O-] (stereo unspecified),Activity,Staphylococcus aureus [15],>80%
Cc1ccc(S(=O)(=O)n2cc3c4c2C(=O)C(NCCc2ccc5c(c2)COC5)=CC4=NCC3)cc1,IC50,Streptococcus mutans [2],0.4 µM
C=C1CCC(Cl)C(C)(C)C1C[C@@]12OC(C)(C)[C@H](Cl)C=C1C(=O)c1c(cc(O)c(C)c1O)C2=O (stereo partly specified),Activity,Marinobacter nauticus,33.7%
COc1cc(-c2ccccn2)nc(C#N)c1SC,Activity,Staphylococcus aureus [15],>50%
COc1ccc(CCNC2=CC3=NCCc4cn(S(=O)(=O)c5ccc(C)cc5)c(c43)C2=O)cc1,IC50,Streptococcus mutans [2],2 µM
CC(C)=CCC/C(C)=C/[C@@H]1CC(C)=C[C@]2(C=C(CO)[C@H]3CC(=O)C(C)=C[C@H]3O2)O1,Activity,Staphylococcus aureus [5],>75%
CCCCCCCCC[C@H](CC(=O)NCCCN)N1CC(=O)N[C@@H](Cc2ccccc2)C1=O,Activity,Streptococcus mutans [3],34.8%
same,Activity,Streptococcus mutans [4],90%
COC(=O)[C@H](C)c1c([C@@]2(C)CCCC(C)(C)C2)ccc2c1C(=O)OC2,Activity,Staphylococcus aureus [13],99.9%
CC(=O)OC1OC2OC(=O)[C@H](C)C34OOC([C@@]5(C)CCCC(C)(C)C5)(CC[C@@H]1C23)O4 (stereo partly specified),Activity,Staphylococcus aureus [16],99%
C[C@H]1C(=O)O[C@@H]2OC[C@@H]3CCC([C@@]4(C)CCCC(C)(C)C4)=C1[C@@H]32,Activity,Staphylococcus aureus [16],85.4%
COCCn1cc(-c2nc(-c3cn(C)c4ncccc34)cs2)c2cc(F)ccc21,IC50,Staphylococcus aureus [8],0.4 µM
same,IC50,Staphylococcus aureus [9],51.6 µM
Cc1ccc(S(=O)(=O)n2cc3c4c2C(=O)C(NCc2ccc(Cl)cc2)=CC4=NCC3)cc1,IC50,Streptococcus mutans [2],2.5 µM
CC(C)=CCC/C(C)=C\C[C@@]12OC(C)(C)[C@H](Cl)C[C@]1(Cl)C(=O)c1c(O)cc(O)cc1C2=O,Activity,[14],87.2%
same,Activity,Micrococcus luteus,88.6%
COc1cc(-c2ccccn2)nc2cnsc12,Activity,Staphylococcus aureus [15],>50%
C/C=C1/C(=O)/C(=C(/O)C(C)CCCCCC)C(=O)N1C (stereo unspecified) [PENICILLENOL B1],Activity,Candida albicans,80%
C=C1CCC(Br)C(C)(C)C1C[C@@]12OC(C)(C)[C@H](Cl)C=C1C(=O)c1c(O)cc(O)cc1C2=O (stereo partly specified),Activity,[14],26.2%
same,Activity,Marinobacter nauticus,59.3%
same,Activity,Micrococcus luteus,100%
Cc1c(O)cc2c(c1O)C(=O)[C@@]1(Cl)C[C@@H](Cl)C(C)(C)O[C@@]1(CC1C(C)(C)C(Cl)CC[C@@]1(C)O)C2=O (stereo partly specified),Activity,Marinobacter nauticus,25.1%
CCCCC/C=C/C(=O)CCCCCCCCCC(=O)O,MBIC,[11],16 µg/mL
C=C(C)C(O)CC/C(C)=C/C[C@@]12OC(C)(C)[C@H](Cl)C[C@]1(Cl)C(=O)c1c(O)cc(O)cc1C2=O (stereo partly specified),Activity,[14],13.4%
same,Activity,Marinobacter nauticus,56.9%
same,Activity,Micrococcus luteus,97%
Cn1c(-c2nnc(-c3ccc(N)cc3)o2)cc(Br)c1Br,MBIC,[17],3.125 µg/mL
CCCCC/C=C/C(=O)CCCCCCCC(=O)O,MBIC,[11],>128 µg/mL
COCCn1cc(-c2nc(-c3c[nH]c4ncccc34)cs2)c2cc(Br)ccc21,IC50,Pseudomonas aeruginosa [10],9.7 µM
same,IC50,Staphylococcus aureus [8],1.7 µM
same,IC50,Staphylococcus aureus [9],20.7 µM
O=C(NCCSSCCNC(=O)/C(Cc1cc(Br)c(O)c(-c2cc(C/C(=N\O)C(=O)NCCSSCCNC(=O)/C(Cc3ccc(O)c(Br)c3)=N/O)cc(Br)c2O)c1)=N\O)/C(Cc1ccc(O)c(Br)c1)=N\O,IC50,[18],8.7 µM
same,IC50,[19],8.53 µM
CCC1=C(C=O)[C@H](C(=O)OC)CC[C@@H]1[C@@]1(C)CCCC(C)(C)C1,Activity,Staphylococcus aureus [16],90.7%
O=C1Nc2cc(Br)ccc2[C@@]1(c1c[nH]c2ccccc12)C1CNc2ccccc21 (stereo partly specified),Activity,Pseudomonas aeruginosa [20],41.76%
C=C1CCC(Cl)C(C)(C)C1C[C@@]12OC(C)(C)[C@H](Cl)C[C@]1(Cl)C(=O)c1c(cc(O)c(C)c1O)C2=O (stereo partly specified),Activity,Marinobacter nauticus,48.2%
CC(=O)O[C@@H]1O[C@H](OC(C)=O)[C@H]2C(=O)[C@@H]([C@@]3(C)CCCC(C)(C)C3)CC[C@@H]12,Activity,Staphylococcus aureus [13],97.7%
COCCn1cc(-c2nc(-c3cn(C)c4ncccc34)cs2)c2cc(Br)ccc21,IC50,Pseudomonas aeruginosa [10],9.7 µM
same,IC50,Staphylococcus aureus [8],2.03 µM
same,IC50,Staphylococcus aureus [9],23.9 µM
O=C(NCCSSCCNC(=O)/C(Cc1ccc(O)c(Br)c1)=N/O)/C(Cc1ccc(O)c(Br)c1)=N/O [PSAMMAPLIN A],IC50,[18],2.64 µM
same,IC50,[19],30.7 µM
